This test deals with α4β1 (Homo sapiens, UniProt P05556+P13612). Kind of test: α4β1 integrin inhibition, IC50. The format is binding. The conditions noted are these: read-out: α4β1 IC50.

These results are taken from patent US10875875B2, “Propionic acid derivatives and methods of use thereof” (Aviara Pharmaceuticals, Inc., priority 2017, dated 2020).

Sequence of α4β1 (P13612 34-1032): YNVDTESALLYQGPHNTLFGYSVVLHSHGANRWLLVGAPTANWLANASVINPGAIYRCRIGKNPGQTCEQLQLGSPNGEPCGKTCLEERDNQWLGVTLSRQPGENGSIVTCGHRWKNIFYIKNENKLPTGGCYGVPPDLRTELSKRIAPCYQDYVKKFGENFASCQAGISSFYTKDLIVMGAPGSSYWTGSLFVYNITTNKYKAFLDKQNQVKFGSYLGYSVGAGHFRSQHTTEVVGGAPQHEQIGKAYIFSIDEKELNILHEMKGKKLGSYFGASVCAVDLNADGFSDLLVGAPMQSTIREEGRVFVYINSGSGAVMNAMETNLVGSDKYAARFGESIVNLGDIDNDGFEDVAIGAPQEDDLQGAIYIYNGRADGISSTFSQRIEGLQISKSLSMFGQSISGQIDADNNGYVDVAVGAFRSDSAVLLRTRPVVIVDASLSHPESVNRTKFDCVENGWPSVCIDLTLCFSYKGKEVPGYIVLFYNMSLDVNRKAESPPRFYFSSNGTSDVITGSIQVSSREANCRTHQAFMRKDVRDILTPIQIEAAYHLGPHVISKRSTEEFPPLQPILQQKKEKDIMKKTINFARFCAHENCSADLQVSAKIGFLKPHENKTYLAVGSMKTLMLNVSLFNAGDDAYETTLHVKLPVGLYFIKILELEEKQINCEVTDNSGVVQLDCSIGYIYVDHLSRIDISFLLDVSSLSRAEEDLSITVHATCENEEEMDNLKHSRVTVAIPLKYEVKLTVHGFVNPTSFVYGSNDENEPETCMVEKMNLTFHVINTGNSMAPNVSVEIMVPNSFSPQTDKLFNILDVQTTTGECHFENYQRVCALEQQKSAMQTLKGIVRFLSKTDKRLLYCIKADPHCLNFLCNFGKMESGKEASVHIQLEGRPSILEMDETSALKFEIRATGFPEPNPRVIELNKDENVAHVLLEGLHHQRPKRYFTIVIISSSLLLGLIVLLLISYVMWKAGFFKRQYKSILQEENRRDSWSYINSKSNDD
Sequence of α4β1 (P05556 21-798): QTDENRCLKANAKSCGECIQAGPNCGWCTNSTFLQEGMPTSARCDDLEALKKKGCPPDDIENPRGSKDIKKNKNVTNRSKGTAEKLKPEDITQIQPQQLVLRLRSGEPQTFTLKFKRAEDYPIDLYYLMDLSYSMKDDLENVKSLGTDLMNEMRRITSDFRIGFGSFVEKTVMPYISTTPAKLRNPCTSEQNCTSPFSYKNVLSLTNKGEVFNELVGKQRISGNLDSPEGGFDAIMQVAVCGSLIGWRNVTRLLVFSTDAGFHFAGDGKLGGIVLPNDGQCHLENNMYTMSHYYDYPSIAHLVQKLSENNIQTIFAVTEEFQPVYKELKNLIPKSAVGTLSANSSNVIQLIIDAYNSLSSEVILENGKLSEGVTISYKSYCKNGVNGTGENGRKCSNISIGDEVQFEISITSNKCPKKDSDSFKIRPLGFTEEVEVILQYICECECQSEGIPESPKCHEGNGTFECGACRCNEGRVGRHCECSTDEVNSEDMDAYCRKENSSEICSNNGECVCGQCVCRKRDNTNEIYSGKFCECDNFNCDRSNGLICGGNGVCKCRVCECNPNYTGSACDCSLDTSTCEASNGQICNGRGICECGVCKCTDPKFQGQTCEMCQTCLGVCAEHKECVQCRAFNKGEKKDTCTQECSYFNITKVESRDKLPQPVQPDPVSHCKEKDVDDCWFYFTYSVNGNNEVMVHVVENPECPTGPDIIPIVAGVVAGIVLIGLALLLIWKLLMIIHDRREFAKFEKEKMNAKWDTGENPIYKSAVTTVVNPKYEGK

Take `Cc1cccc(C)c1-c1ccc([C@H](CC(=O)O)NC(=O)Nc2c(O)cc(C)n(C)c2=O)s1` [1-588, sodium (S)-3-(3-(1,6-dimethyl-4-oxido-2-oxo-1,2-dihydropyridin-3-yl)ureido)-3-(5-(2,6-dimethylphenyl)thiophen-2-yl)propanoate]: the half-inhibitory concentration (IC50) is < 20 nM.
With `COc1cccc(-c2cc([C@H](CC(=O)O)NC(=O)Nc3c(O)cc(C)n(C)c3=O)ccc2OC(F)(F)F)c1` [1-635, sodium (S)-3-(3-(1,6-dimethyl-4-oxido-2-oxo-1,2-dihydropyridin-3-yl)ureido)-3-(3′-methoxy-6-(trifluoromethoxy)biphenyl-3-yl)propanoate] the figure was < 20 nM; with `Cc1cn(C)c(=O)c(NC(=O)N[C@@H](CC(=O)O)c2cccc(-c3cccnc3)c2)c1O` [1-452, sodium (S)-3-(3-(1,5-dimethyl-4-oxido-2-oxo-1,2-dihydropyridin-3-yl)ureido)-3-(3-(pyridin-3-yl)phenyl)propanoate], < 200 nM.
With `Cn1ccc(O)c(NC(=O)N[C@@H](CC(=O)O)c2ccc(-c3ccccc3)s2)c1=O` [1-613, sodium (S)-3-(3-(1-methyl-4-oxido-2-oxo-1,2-dihydropyridin-3-yl)ureido)-3-(5-phenylthiophen-2-yl)propanoate] the figure was < 20 nM; with `COc1ccc([C@H](CC(=O)O)NC(=O)Nc2c(O)ccn(C)c2=O)cc1-c1ccc(OC(F)(F)F)cc1` [1-536, sodium (S)-3-(6-methoxy-4′-(trifluoromethoxy)biphenyl-3-yl)-3-(3-(1-methyl-4-oxido-2-oxo-1,2-dihydropyridin-3-yl)ureido)propanoate], < 20 nM; with `COc1ccc(-c2ccccc2)cc1[C@H](CC(=O)O)NC(=O)Nc1c(O)ccn(C)c1=O` [1-596, sodium (S)-3-(4-methoxybiphenyl-3-yl)-3-(3-(1-methyl-4-oxido-2-oxo-1,2-dihydropyridin-3-yl)ureido)propanoate], < 20 nM.
Under `Cc1cccc(-c2cccc([C@H](CC(=O)O)NC(=O)Nc3c(O)c(C)cn(C)c3=O)c2)c1C` [1-462, sodium (S)-3-(3-(1,5-dimethyl-4-oxido-2-oxo-1,2-dihydropyridin-3-yl)ureido)-3-(2′,3′-dimethylbiphenyl-3-yl)propanoate] stands < 200 nM.
Turning to `Cc1cn(C)c(=O)c(NC(=O)N[C@@H](CC(=O)O)c2cccc(-c3cccc(F)c3)c2)c1O` [1-465, sodium (S)-3-(3-(1,5-dimethyl-4-oxido-2-oxo-1,2-dihydropyridin-3-yl)ureido)-3-(3′-fluorobiphenyl-3-yl)propanoate], the IC50 was < 20 nM.
Under `CCn1ccc2ccc(-c3cccc([C@H](CC(=O)O)NC(=O)Nc4c(O)ccn(C)c4=O)c3)cc21` [1-521, sodium (S)-3-(3-(1-ethyl-1H-indol-6-yl)phenyl)-3-(3-(1-methyl-4-oxido-2-oxo-1,2-dihydropyridin-3-yl)ureido)propanoate] stands < 20 nM.
Under `Cn1ccc(O)c(NC(=O)N[C@@H](CC(=O)O)c2cc(-c3ccc(F)cc3F)ccc2F)c1=O` [1-591, sodium (S)-3-(3-(1-methyl-4-oxido-2-oxo-1,2-dihydropyridin-3-yl)ureido)-3-(2′,4,4′-trifluorobiphenyl-3-yl)propanoate] stands < 20 nM.
With `Cn1ccc(O)c(NC(=O)N[C@@H](CC(=O)O)c2ccc(-c3cc(F)ccc3F)s2)c1=O` [1-614, sodium (S)-3-(5-(2,5-difluorophenyl)thiophen-2-yl)-3-(3-(1-methyl-4-oxido-2-oxo-1,2-dihydropyridin-3-yl)ureido)propanoate], the concentration for half-maximal inhibition (IC50) was < 20 nM.
Under `Cn1cc(-c2cccc([C@H](CC(=O)O)NC(=O)Nc3c(O)ccn(C)c3=O)c2)cn1` [1-548, sodium (S)-3-(3-(1-methyl-1H-pyrazol-4-yl)phenyl)-3-(3-(1-methyl-4-oxido-2-oxo-1,2-dihydropyridin-3-yl)ureido)propanoate] stands < 20 nM; under `Cc1cn(C)c(=O)c(NC(=O)N[C@@H](CC(=O)O)c2cccc(-c3ccc(F)cc3)c2)c1O` [1-466, sodium (S)-3-(3-(1,5-dimethyl-4-oxido-2-oxo-1,2-dihydropyridin-3-yl)ureido)-3-(4′-fluorobiphenyl-3-yl)propanoate], < 20 nM.
Under `COc1cccc(-c2cc([C@H](CC(=O)O)NC(=O)Nc3c(O)cc(C)n(C)c3=O)ccc2OC)c1` [1-551, sodium (S)-3-(3′,6-dimethoxybiphenyl-3-yl)-3-(3-(1,6-dimethyl-4-oxido-2-oxo-1,2-dihydropyridin-3-yl)ureido)propanoate] stands < 20 nM.
For `Cn1ccc(O)c(NC(=O)N[C@@H](CC(=O)O)c2cncc(-c3ccccc3)c2)c1=O` [1-641, sodium (S)-3-(3-(1-methyl-4-oxido-2-oxo-1,2-dihydropyridin-3-yl)ureido)-3-(5-phenylpyridin-3-yl)propanoate], the IC50 is < 20 nM.
With `Cc1cn(C)c(=O)c(NC(=O)NC(CC(=O)O)c2cccc(-c3cc(Cl)cc(Cl)c3)c2)c1O` (stereo not shown) [1-486, sodium 3-(3′,5′-dichlorobiphenyl-3-yl)-3-(3-(1,5-dimethyl-4-oxido-2-oxo-1,2-dihydropyridin-3-yl)ureido)propanoate] the figure was < 200 nM.
With `Cc1cn(C)c(=O)c(NC(=O)NC(CC(=O)O)c2ccc(OCC(F)(F)F)c(-c3ccccc3)c2)c1O` (stereo not shown) [1-491, sodium 3-(3-(1,5-dimethyl-4-oxido-2-oxo-1,2-dihydropyridin-3-yl)ureido)-3-(6-(2,2,2-trifluoroethoxy)biphenyl-3-yl)propanoate] the figure was < 200 nM; with `Cc1cn(C)c(=O)c(NC(=O)N[C@@H](CC(=O)O)c2cc(-c3ccccc3)ccc2F)c1O` [1-493, sodium (S)-3-(3-(1,5-dimethyl-4-oxido-2-oxo-1,2-dihydropyridin-3-yl)ureido)-3-(4-fluorobiphenyl-3-yl)propanoate], < 200 nM; with `COc1ccc([C@H](CC(=O)O)NC(=O)Nc2c(O)ccn(C)c2=O)cc1-c1cccc(Cl)c1` [1-534, sodium (S)-3-(3′-chloro-6-methoxybiphenyl-3-yl)-3-(3-(1-methyl-4-oxido-2-oxo-1,2-dihydropyridin-3-yl)ureido)propanoate], < 20 nM.
As for `Cc1ccc(-c2cccc([C@H](CC(=O)O)NC(=O)Nc3c(O)c(C)cn(C)c3=O)c2)cc1` [1-450, sodium (S)-3-(3-(1,5-dimethyl-4-oxido-2-oxo-1,2-dihydropyridin-3-yl)ureido)-3-(4′-methylbiphenyl-3-yl)propanoate], the IC50 is < 200 nM.
With `COc1cc(-c2ccc(F)cc2F)cc([C@H](CC(=O)O)NC(=O)Nc2c(O)cc(C)n(C)c2=O)c1` [1-581, sodium (S)-3-(2′,4′-difluoro-5-methoxybiphenyl-3-yl)-3-(3-(1,6-dimethyl-4-oxido-2-oxo-1,2-dihydropyridin-3-yl)ureido)propanoate] the figure was < 20 nM; with `Cc1cn(C)c(=O)c(NC(=O)N[C@@H](CC(=O)O)c2ccc(-c3ccccc3)o2)c1O` [1-482, sodium (S)-3-(3-(1,5-dimethyl-4-oxido-2-oxo-1,2-dihydropyridin-3-yl)ureido)-3-(5-phenylfuran-2-yl)propanoate], < 200 nM; with `Cc1cn(C)c(=O)c(NC(=O)NC(CC(=O)O)c2cccc(-c3ccc(Cl)cc3Cl)c2)c1O` (stereo not shown) [1-511, sodium 3-(2′,4′-dichlorobiphenyl-3-yl)-3-(3-(1,5-dimethyl-4-oxido-2-oxo-1,2-dihydropyridin-3-yl)ureido)propanoate], < 200 nM.
Turning to `Cc1ccc(-c2cccc([C@H](CC(=O)O)NC(=O)Nc3c(O)c(C)cn(C)c3=O)c2)cc1C` [1-495, sodium (S)-3-(3-(1,5-dimethyl-4-oxido-2-oxo-1,2-dihydropyridin-3-yl)ureido)-3-(3′,4′-dimethylbiphenyl-3-yl)propanoate], the IC50 was < 200 nM.
`Cc1cn(C)c(=O)c(NC(=O)N[C@@H](CC(=O)O)c2cccc(-c3ccc(F)c(F)c3)c2)c1O` [1-458, sodium (S)-3-(3′,4′-difluorobiphenyl-3-yl)-3-(3-(1,5-dimethyl-4-oxido-2-oxo-1,2-di hydropyridin-3-yl)ureido)propanoate]: the half-maximal inhibitory concentration (IC50) was < 20 nM.
Under `Cc1cn(C)c(=O)c(NC(=O)N[C@@H](CC(=O)O)c2cccc(-c3ccc4c(c3)OCO4)c2)c1O` [1-517, sodium (S)-3-(3-(benzo[d][1,3]dioxol-5-yl)phenyl)-3-(3-(1,5-dimethyl-4-oxido-2-oxo-1,2-dihydropyridin-3-yl)ureido)propanoate] stands < 20 nM; under `Cc1cscc1-c1ccc([C@H](CC(=O)O)NC(=O)Nc2c(O)ccn(C)c2=O)s1` [1-584, sodium (S)-3-(4′-methyl-2,3′-bithiophen-5-yl)-3-(3-(1-methyl-4-oxido-2-oxo-1,2-di hydropyridin-3-yl)ureido)propanoate], < 20 nM.
Under `COc1cccc(-c2cc(C)cc([C@H](CC(=O)O)NC(=O)Nc3c(O)cc(C)n(C)c3=O)c2)c1` [1-586, sodium (S)-3-(3-(1,6-dimethyl-4-oxido-2-oxo-1,2-dihydropyridin-3-yl)ureido)-3-(3′-methoxy-5-methylbiphenyl-3-yl)propanoate] stands < 20 nM; under `Cc1cscc1-c1cccc([C@H](CC(=O)O)NC(=O)Nc2c(O)ccn(C)c2=O)c1` [1-540, sodium (S)-3-(3-(1-methyl-4-oxido-2-oxo-1,2-dihydropyridin-3-yl)ureido)-3-(3-(4-methylthiophen-3-yl)phenyl)propanoate], < 20 nM.
Under `Cc1cn(C)c(=O)c(NC(=O)NC(CC(=O)O)c2ccc(=O)n(-c3ccccc3)c2)c1O` (stereo not shown) [1-463, sodium 3-(3-(1,5-dimethyl-4-oxido-2-oxo-1,2-dihydropyridin-3-yl)ureido)-3-(6-oxo-1-phenyl-1,6-dihydropyridin-3-yl)propanoate] stands < 200 nM.
Take `CC(=O)c1cccc(-c2cccc(C(CC(=O)O)NC(=O)Nc3c(O)c(C)cn(C)c3=O)c2)c1` (stereo not shown) [1-626, sodium 3-(3′-acetylbiphenyl-3-yl)-3-(3-(1,5-dimethyl-4-oxido-2-oxo-1,2-dihydropyridin-3-yl)ureido)propanoate]: the IC50 was < 20 nM.
